In patent US20220218834A1, “APOHEMOGLOBIN-HAPTOGLOBIN COMPLEXES AND METHODS OF USING THEREOF” (OHIO STATE INNOVATION FOUNDATION, priority 2019, published 2022):

How the values were obtained:
[1] = tested on: cancerous cells (4T1, MDA-MB-231); assay type: cell-based; conditions: without laser irradiation (dark)
Method: (§1) Cell Culture. Cancerous (4T1 [murine] and MDA-MB-231 [human]) and noncancerous (NOR-10 [murine] and MCF-10A [human]) cell lines were purchased from American Type Culture Collection (ATCC, Manassas, Va.). All cells were cultured in DMEM, and supplemented with 10% (v:v) fetal bovine serum and 1% (v:v) antibiotic solution (100 IU/mL penicillin and […]). All cells were maintained at 37° C. in 5% CO2 and in a humidified atmosphere.
(§2) PDT. For PDT, 4T1, MDA-MB-231, NOR-10, and MCF-10A cells were cultured for 24 hours at a density of 5×10^3 on coverslips. Next, cells were exposed to Al-PC, apoHb-Al-PC-Hp, and apoHb-Hp in culture medium at different concentrations. Later, the cells were irradiated with a laser (λ=670 nm) at energy densities between 0.0 J/cm2 and 4 J/cm2 for 15 minutes in the dark.
(§3) Cell Viability. Cell viability was assessed using the MTT assay, which is converted by the mitochondria of viable cells to an insoluble purple precipitate. Briefly, after receiving their treatment, cells were washed with PBS twice and then incubated with 0.5 mg/mL of MTT in culture medium for 2 hours. Then, the MTT solution was washed away, and the purple precipitate was extracted from the cells with 150 μL of dimethyl sulfoxide (DMSO). The absorption was then measured at λ=595 nm using a spectrophotometer (Spectramax; Molecular Devices).

[2] = tested on: normal cells (NOR-10, MCF 10A); assay: Cell viability (MTT) without laser irradiation, normal cells; assay type: cell-based, murine and human; conditions: without laser irradiation (dark)
Method: as §1, §2, §3

[3] = unit not given; cited from earlier work
[4] = Stability of apoHb-Al-PC on dialysis against PBS; assay type: physicochemical
Method: Stability of ApoHb-Al-PC. […] The sample was then dialyzed against PBS using 6-8 kDa cellulose dialysis membranes to remove any residual EtOH. Dialysis was performed over three days with daily exchange of the PBS buffer. The UV-visible absorbance spectra of samples were measured before and after dialysis.

Hp [5] = assay: HPLC-SEC of apoHb-Mn-IX binding to Hp; design: species or system human; conditions: excess apoHb, detection of Mn-IX
Method: Diagnostic/therapeutic solutions tested here consisted of either Mn-porphyrin IX chloride (Mn-IX) or aluminum phthalocyanine (Al-PC) chloride. The Mn-IX solution was made by dissolving 2.5 mg of Mn-IX in 0.5 mL of 0.1 M NaOH. For Al-PC, 1 mg of Al-PC was dissolved in 1 mL of pure EtOH, then 50 μL of the saturated solution was diluted into 1 mL of pure EtOH (the second dilution ensured that the Al-PC is monomeric in solution). […] From the stock diagnostic/therapeutic solutions, either 2 μl of the stock Mn-IX or 100 μl of the Al-PC solutions was added to the protein samples. The resultant mixtures had their absorbance spectras measured via UV-visible spectroscopy and were separated via size exclusion chromatography (SEC) using an Acclaim SEC-1000 (4.6×300 mm) column (Thermo Fisher Scientific, Waltham, Mass.) attached to a Dionex UltiMate 3000 system (Thermo Fisher Scientific, Waltham, Mass.). The mobile phase consisted of 50 mM potassium phosphate, pH 7.4.
Target sequence in this assay (P00738 19-160 limits assumed): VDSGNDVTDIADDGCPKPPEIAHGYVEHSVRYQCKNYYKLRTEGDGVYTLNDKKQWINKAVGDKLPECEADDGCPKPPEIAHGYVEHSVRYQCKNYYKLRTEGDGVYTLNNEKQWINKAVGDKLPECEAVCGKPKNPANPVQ
Target sequence in this assay (P00738 162-406 limits assumed): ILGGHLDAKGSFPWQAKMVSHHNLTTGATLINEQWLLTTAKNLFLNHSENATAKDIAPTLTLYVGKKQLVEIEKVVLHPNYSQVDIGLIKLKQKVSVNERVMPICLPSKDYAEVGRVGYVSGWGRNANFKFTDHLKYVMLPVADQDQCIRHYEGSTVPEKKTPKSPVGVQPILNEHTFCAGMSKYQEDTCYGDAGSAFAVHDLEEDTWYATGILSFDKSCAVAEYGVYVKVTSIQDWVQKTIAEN
Target sequence in this assay (P69905 2-142 partner limits assumed): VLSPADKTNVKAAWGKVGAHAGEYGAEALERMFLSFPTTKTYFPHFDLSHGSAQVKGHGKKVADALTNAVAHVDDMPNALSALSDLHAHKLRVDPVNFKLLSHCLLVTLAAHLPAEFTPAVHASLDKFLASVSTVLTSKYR
Target sequence in this assay (P68871 2-147 partner limits assumed): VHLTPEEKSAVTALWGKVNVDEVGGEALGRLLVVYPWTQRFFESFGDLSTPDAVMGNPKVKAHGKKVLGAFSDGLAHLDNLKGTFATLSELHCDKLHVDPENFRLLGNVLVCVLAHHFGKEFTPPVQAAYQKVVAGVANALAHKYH

[6] = Specificity of Al-PC binding to proteins (UV-visible absorbance at 680 nm); conditions: absorbance at 680 nm after Al-PC addition in PBS
Method: The stock Al-PC solution was diluted 100× into 100% EtOH.
The concentrations of Hp, HSA, Hb and rHb in solution were 1.0 mg/mL, 0.35 mg/ml (and 3.5 mg/ml), 0.35 mg/mL, and 0.33 mg/mL respectively.

Hp [7] = assay: Kinetics of Hp binding to Hb and PolyHb, stopped-flow fluorescence; design: species or system human; conditions: 20° C., PBS 0.1 M pH 7.4
Method: The Hp used for this study was purified from human Cohn Fraction IV derived from pooled human plasma. The resulting Hp contained both Hp2-1 and Hp2-2 phenotypes. The total amount of protein in solution was estimated with a Bradford assay. The Hb binding capacity of Hp was assessed by monitoring Hb binding to Hp at 413 nm with HPLC-SEC and was used to quantify the concentration of Hp. The reaction of Hp with either unmodified human Hb or PolyHb synthesized in this study was monitored using an SX-20 stopped stopped-flow spectrophotometer using previously described methods (Applied Photophysics, Leatherhead, UK). Excess Hp (2:1, Hp:PolyhHb on a Hb tetramer binding basis) was allowed to react with PolyHb to form the resulting Hp-PolyHb complex. The resulting changes in size distribution after Hp binding was estimated with HPLC-SEC using previously described methods. All measurements were taken from the same sample used in the animal study.
Target sequence in this assay (P00738 162-406 limits assumed): as the sequence (P00738 162-406 limits assumed) above

[8] = Hb/PolyHb NO dioxygenation kinetics, stopped-flow; assay type: biochemical; conditions: 20° C., 0.1 M pH 7.4 PBS
Description: (§4) The Hb used in this exampler was purified from human RBCs via tangential flow filtration (TFF), as described previously. Hb was polymerized with glutaraldehyde under complete deoxygenation in the tense (T) quaternary state at a 25:1 molar ratio of glutaraldehyde to Hb. After polymerization, PolyHb was clarified, purified, and buffer exchanged into a modified Ringer's lactate solution using TFF. Modified polyester sulfone hollow fiber filters with a molecular weight cutoff (MWCO) of 100 kDa were used to remove unpolymerized Hb from solution. The PolyHb solution was concentrated to 12 g/dL. […] The size distribution of PolyHb, by particle volume, was measured using dynamic light scattering (DLS) (Brookhaven Instrument Inc. BS-200M, Holtsville, N.Y.). The rheology of PolyHb solutions was measured using a DV3T-CP cone and plate rheometer (Brookfield AMETEK, Middleboro, Mass.) with cone spindle CPA-40Z. The O2-Hb/PolyHb equilibrium binding curves were measured using a Hemox Analyzer (TCS Scientific Corp., New Hope, Pa.). The Hb/PolyHb kinetics of O2 offloading (koff,O2) and NO dioxygenation kinetics (kox,NO) were measured with an Applied Photophysics SF-17 microvolume stopped-flow spectrophotometer (Applied Photophysics Ltd., Surrey, United Kingdom) using protocols previously described by Rameez and Palmer. […]

Hp [9] = conditions: cited from earlier work
Target sequence in this assay (P00738 162-406 limits assumed): as above

[10] = O2 equilibrium binding curves of rHb and native Hb (Hemox analyzer); assay type: biochemical; conditions: 37° C.; for P50: O2 affinity; for N (cooperativity coefficient n): O2 equilibrium
Method: rHb Analysis. Various liganded forms of rHb were analyzed via UV-Vis spectroscopy and compared against native Hb. The oxy-rHb and oxyHb equilibrium binding curves were measured using a Hemox analyzer (TCS Scientific Corp., New Hope, Pa.) at 37° C. The spectra of rHb was measured after one day reaction with excess heme (stage 1), after reduction and diafiltration with the modified HEMOX buffer (stage 2), after placing the rHb mixture under a CO atmosphere (stage 3), after heating the CO-rHb mixture and removing precipitate (stage 4), and after re-oxygenating the rHb sample (stage 5). Spectral deconvolution software was developed in the Python programming language (Python Software Foundation Beaverton, Oreg.) using the non-linear least squares function curve_fit of the SciPy package to determine the fraction of various liganded forms of rHb that contribute to the final spectra of the rHb mixture (i.e. containing metHb, hemichrome, oxyHb, HbCO and heme).

[11] = Rheology of PolyHb solutions (cone and plate rheometer); assay type: physicochemical
Description: as §4

[12] = O2-Hb/PolyHb equilibrium binding curves (Hemox Analyzer); assay type: biochemical
Description: as §4

[Cl][Al]1[n]2c3c4ccccc4c2N=C2N=C(N=c4c5ccccc5c([n]41)=NC1=NC(=N3)c3ccccc31)c1ccccc12 [Al-PC, aluminum phthalocyanine chloride]
lethal dose for 50% cell-death (LD50) [1]: 7 µM | lethal dose for 50% cell-death (LD50) [2]: 10 µM

Hb in human RBCs: Hb in human red blood cells, literature O2 affinity
O2 affinity P50, literature [3]: 29.3

apoHb-Al-PC: Al-PC bound to apoHb
stability in aqueous solution [4]: not stable in aqueous solution

apoHb-Mn-IX: Mn-porphyrin IX bound to apoHb
affinity of Hp (Hp [5]): higher affinity for apoHb-Mn-IX than to pure apoHb

hHb: human hemoglobin prepared from red blood cells via tangential flow filtration [reference compound]
Al-PC binding [6]: no appreciable binding of Al-PC | rate constant of Hp binding (Hp [7]): 150000 ± 1000 M⁻¹ s⁻¹ | rate of NO dioxygenation kox,NO [8]: 36.0±6.1 | rate constant of Hp binding, literature (Hp [9]): 129000 M⁻¹ s⁻¹ | P50 [10]: 11.69 ± 0.88 mm Hg | P50 ([10]; listed as Native hHb): 11.33±0.02 mm Hg | P50 ([10]; listed as native Hb): 11.69±0.88 mm Hg | N (cooperativity coefficient n) [10]: 2.73 ± 0.11^ | N (cooperativity coefficient n) ([10]; listed as Native hHb): 2.60±0.01 | N (cooperativity coefficient n) ([10]; listed as native Hb): 2.73±0.11 | viscosity [11]: 1.2±0.2 cP | cooperativity n [12]: 2.51±0.06 | oxygen affinity P50 [12]: 12.4±1.3 mm Hg
